Assay results as given in ChEMBL document CHEMBL4414658, “Melongenaterpenes A-L, Vetispirane-Type Sesquiterpenoids from the Roots of Solanum melongena” (J Nat Prod, 2019).
Activity calls are given as the source filed them.

Assays:
Type in all cases: functional, cell-based
[1] = system: HepG2; test: Cytotoxicity against human HepG2 cells assessed as reduction in cell viability incubated for 24 hrs by MTT assay
[2] = system: HeLa; test: Cytotoxicity against human HeLa cells assessed as reduction in cell viability incubated for 24 hrs by MTT assay
[3] = system: MCF7; test: Cytotoxicity against human MCF7 cells assessed as reduction in cell viability incubated for 24 hrs by MTT assay

Measured: Activity

C=C(CO[C@@H]1O[C@H](CO)[C@@H](O)[C@H](O)[C@H]1O)[C@@H]1CC[C@@]2(C1)[C@H](C)[C@@H](O)[C@H](O)C[C@H]2C(OC)OC
inactive: all assays above

C=C(CO)[C@@H]1CC[C@]2(C1)[C@@H](CO)C[C@@H](O)[C@H](O)[C@H]2C
inactive: all assays above

C=C(CO)[C@@H]1CC[C@]2(C1)[C@H](CO)C[C@@H](O)C[C@H]2C
inactive: all assays above

C=C(CO[C@@H]1O[C@H](CO)[C@@H](O)[C@H](O)[C@H]1O)[C@@H]1CC[C@]2(C1)[C@@H](C(OC)OC)C[C@@H](O)[C@H](O)[C@H]2C
inactive: all assays above

C=C(CO[C@@H]1O[C@H](CO[C@@H]2OC[C@H](O)[C@H](O)[C@H]2O)[C@@H](O)[C@H](O)[C@H]1O)[C@@H]1CC[C@@]2(C1)C(C)=CC(=O)C[C@H]2C
inactive: all assays above

C=C(CO)[C@@H]1CC[C@]2(C1)[C@H](CO)C[C@@H](O)[C@H](O)[C@H]2C
inactive: all assays above
